Experimental data published in ChEMBL document CHEMBL3885881, “DrugMatrix”.

Organism: Rattus norvegicus
Test: DrugMatrix - Regimen: Daily Repeat
Format: toxicity, organism-based, Sprague-Dawley
Design: regimen Daily Repeat, gender Male, age 6-8 weeks
Settings: in vivo, po, route oral GAVAGE, […]; for ABSOLUTE BASOPHIL / ABSOLUTE EOSINOPHIL / ABSOLUTE LYMPHOCYTE / ABSOLUTE MONOCYTE / BASOPHIL / EOSINOPHIL / ERYTHROCYTE COUNT / HEMATOCRIT / HEMOGLOBIN / LEUKOCYTE COUNT / LYMPHOCYTE / MEAN CORPUSCULAR HEMOGLOBIN / MEAN CORPUSCULAR HEMOGLOBIN CONCENTRATION / MEAN CORPUSCULAR VOLUME / MONOCYTE / NEUTROPHIL / PLATELET COUNT: tissue Blood
[1] = 0 mg/kg, dose level Control, time 14 day
[2] = 0 mg/kg, tissue Plasma, dose level Control, time 14 day
[3] = 40 mg/kg, 72 h, dose level Low, time 3 day
[4] = 40 mg/kg, 72 h, tissue Plasma, dose level Low, time 3 day

With `C=CCN` [ALLYLAMINE] the “URIC ACID” value (0 mg/kg, 120 h, tissue Plasma, dose level Control, time 5 day) was 0.5 mg/dL, the ABSOLUTE BASOPHIL [1] was 73.3 cells/µL and the ABSOLUTE EOSINOPHIL [1] was 60 cells/µL. The ABSOLUTE LYMPHOCYTE [1] was 12200 cells/µL, the ABSOLUTE MONOCYTE [1] was 250 cells/µL and the BASOPHIL [1] was 0.5%. For the same compound, the EOSINOPHIL [1] was 0.37%, the “ERYTHROCYTE COUNT” value [1] was 7.33 x10E6/uL and the HEMATOCRIT [1] was 44.3%. The HEMOGLOBIN [1] was 14.77 G/DL, the “LEUKOCYTE COUNT” value [1] was 14.86 x10E3/uL and the LYMPHOCYTE [1] was 81.87%. The “MEAN CORPUSCULAR HEMOGLOBIN” value [1] was 20.2 pg, the “MEAN CORPUSCULAR HEMOGLOBIN CONCENTRATION” value [1] was 33.33 G/DL and the “MEAN CORPUSCULAR VOLUME” value [1] was 60.57 fL. For the same compound, the MONOCYTE [1] was 1.63%, the NEUTROPHIL [1] was 14.93% and the “PLATELET COUNT” value [1] was 1101.67 x10E3/uL. For the same compound, the “ALANINE AMINOTRANSFERASE” value [2] was 31.67 u/L, the ALBUMIN [2] was 3.83 G/DL and the “ALKALINE PHOSPHATASE” value [2] was 430.67 u/L. The “ASPARTATE AMINOTRANSFERASE” value [2] was 87 u/L, the “BLOOD UREA NITROGEN” value [2] was 14.33 mg/dL and the “CARBON DIOXIDE” value [2] was 39 mmol/L. For the same compound, the CHLORIDE [2] was 104 MEQ/L, the CHOLESTEROL [2] was 66 mg/dL and the “CREATINE PHOSPHOKINASE” value [2] was 441.67 u/L. The CREATININE [2] was 0.7 mg/dL, the GLUCOSE [2] was 125.67 mg/dL and the “LACTATE DEHYDROGENASE” value [2] was 397.67 u/L. For the same compound, the LIPASE [2] was 12.33 u/L, the PHOSPHORUS [2] was 9.87 mg/dL and the POTASSIUM [2] was 5.93 MEQ/L. For the same compound, the SODIUM [2] was 145 MEQ/L, the “TOTAL BILIRUBIN” value [2] was 0.37 mg/dL and the “TOTAL PROTEIN” value [2] was 6.27 G/DL. For the same compound, the “URIC ACID” value [2] was 0.67 mg/dL, the ABSOLUTE BASOPHIL [3] was 40 cells/µL and the ABSOLUTE EOSINOPHIL [3] was 60 cells/µL. It also gave an ABSOLUTE LYMPHOCYTE [3] of 9180 cells/µL, an ABSOLUTE MONOCYTE [3] of 300 cells/µL and a BASOPHIL [3] of 0.33%. The EOSINOPHIL [3] was 0.53%, the “ERYTHROCYTE COUNT” value [3] was 7.09 x10E6/uL and the HEMATOCRIT [3] was 45.93%. For the same compound, the HEMOGLOBIN [3] was 14.27 G/DL, the “LEUKOCYTE COUNT” value [3] was 11.66 x10E3/uL and the LYMPHOCYTE [3] was 78.7%. For the same compound, the “MEAN CORPUSCULAR HEMOGLOBIN” value [3] was 20.07 pg, the “MEAN CORPUSCULAR HEMOGLOBIN CONCENTRATION” value [3] was 31 G/DL and the “MEAN CORPUSCULAR VOLUME” value [3] was 64.77 fL. For the same compound, the MONOCYTE [3] was 2.47%, the NEUTROPHIL [3] was 17.23% and the “PLATELET COUNT” value [3] was 1151.67 x10E3/uL. For the same compound, the “ALANINE AMINOTRANSFERASE” value [4] was 38 u/L, the ALBUMIN [4] was 3.8 G/DL and the “ALKALINE PHOSPHATASE” value [4] was 546.67 u/L. For the same compound, the “ASPARTATE AMINOTRANSFERASE” value [4] was 81.67 u/L, the “BLOOD UREA NITROGEN” value [4] was 16.67 mg/dL and the “CARBON DIOXIDE” value [4] was 38.67 mmol/L. The CHLORIDE [4] was 105.67 MEQ/L, the CHOLESTEROL [4] was 70.67 mg/dL and the “CREATINE PHOSPHOKINASE” value [4] was 634.67 u/L. For the same compound, the CREATININE [4] was 0.6 mg/dL, the GLUCOSE [4] was 204.33 mg/dL and the LIPASE [4] was 283.33 u/L. It also gave a PHOSPHORUS [4] of 9.93 mg/dL, a POTASSIUM [4] of 6.43 MEQ/L and an SODIUM [4] of 146 MEQ/L.
